Test results: the NIST ThermoML archive (doi:10.1021/acs.jced.6b00496)
± gives the expanded uncertainty stated by the source.

What was measured:
[1] = 101.33 kPa, Liquid; for speed of sound: Sing-around technique in a fixed-path interferometer; for mass density: Vibrating tube method
[2] = xn = mol fraction of the nth substance listed; settings: 81.5 kPa, Liquid, x2 = 0; for speed of sound: Sing-around technique in a fixed-path interferometer; for mass density: Vibrating tube method

CN(C)C=O [dimethylformamide]
[1]
Settings	mass density [kg/m3]	speed of sound [m/s]
293.15 K	948.743 ± 3.8	1477.1 ± 3.1
298.15 K	943.978 ± 3.8	1457.6 ± 3.1
303.15 K	939.201 ± 3.8	1438 ± 3.1
308.15 K	934.417 ± 3.7	1418.7 ± 3.1
313.15 K	929.62 ± 3.7	1399.3 ± 3.1
318.15 K	924.812 ± 3.7	1380 ± 3.1
323.15 K	919.993 ± 3.7	1360.9 ± 3.1
328.15 K	915.159 ± 3.7	1341.7 ± 3.1
333.15 K	910.312 ± 3.6	1322.7 ± 3.1
338.15 K	905.445 ± 3.6	1303.7 ± 3.1
343.15 K	900.565 ± 3.6	1284.8 ± 3.1

CC(=O)N(C)C [N,N-dimethylethanamide] + CCn1cc[n+](C)c1.F[B-](F)(F)F
[2]
Settings	mass density [kg/m3]	speed of sound [m/s]
293.15 K	941.341 ± 3.8	1477.6 ± 3.2
298.15 K	936.729 ± 3.8	1457.4 ± 3.2
303.15 K	932.112 ± 3.7	1437.4 ± 3.2
308.15 K	927.492 ± 3.7	1417.5 ± 3.2
313.15 K	922.863 ± 3.7	1397.8 ± 3.2
318.15 K	918.23 ± 3.7	1378.2 ± 3.2
323.15 K	913.586 ± 3.7	1358.6 ± 3.2
328.15 K	908.932 ± 3.6	1339.2 ± 3.2
333.15 K	904.268 ± 3.6	1319.9 ± 3.2
338.15 K	899.595 ± 3.6	1300.8 ± 3.2
343.15 K	894.909 ± 3.6	1281.7 ± 3.2

CN(C)C=O [dimethylformamide] + CCn1cc[n+](C)c1.F[B-](F)(F)F
[2]
Settings	mass density [kg/m3]	speed of sound [m/s]
293.15 K	948.743 ± 3.8	1477.1 ± 3.1
298.15 K	943.978 ± 3.8	1457.6 ± 3.1
303.15 K	939.201 ± 3.8	1438 ± 3.1
308.15 K	934.417 ± 3.7	1418.7 ± 3.1
313.15 K	929.62 ± 3.7	1399.3 ± 3.1
318.15 K	924.812 ± 3.7	1380 ± 3.1
323.15 K	919.993 ± 3.7	1360.9 ± 3.1
328.15 K	915.159 ± 3.7	1341.7 ± 3.1
333.15 K	910.312 ± 3.6	1322.7 ± 3.1
338.15 K	905.445 ± 3.6	1303.7 ± 3.1
343.15 K	900.565 ± 3.6	1284.8 ± 3.1

CC(=O)N(C)C [N,N-dimethylethanamide]
[1]
Settings	mass density [kg/m3]	speed of sound [m/s]
293.15 K	941.341 ± 3.8	1477.6 ± 3.2
298.15 K	936.729 ± 3.8	1457.4 ± 3.2
303.15 K	932.112 ± 3.7	1437.4 ± 3.2
308.15 K	927.492 ± 3.7	1417.5 ± 3.2
313.15 K	922.863 ± 3.7	1397.8 ± 3.2
318.15 K	918.23 ± 3.7	1378.2 ± 3.2
323.15 K	913.586 ± 3.7	1358.6 ± 3.2
328.15 K	908.932 ± 3.6	1339.2 ± 3.2
333.15 K	904.268 ± 3.6	1319.9 ± 3.2
338.15 K	899.595 ± 3.6	1300.8 ± 3.2
343.15 K	894.909 ± 3.6	1281.7 ± 3.2

CCn1cc[n+](C)c1.F[B-](F)(F)F [1-ethyl-3-methylimidazolium tetrafluoroborate]
[1]
Settings	mass density [kg/m3]	speed of sound [m/s]
293.15 K	1285.95 ± 5.3	1640.4 ± 3.7
298.15 K	1282.14 ± 5.3	1628.4 ± 3.7
303.15 K	1278.34 ± 5.3	1616 ± 3.7
308.15 K	1274.55 ± 5.3	1604.9 ± 3.7
313.15 K	1270.78 ± 5.3	1593.4 ± 3.7
318.15 K	1267.03 ± 5.2	1582 ± 3.7
323.15 K	1263.3 ± 5.2	1570.6 ± 3.7
328.15 K	1259.58 ± 5.2	1559.4 ± 3.7
333.15 K	1255.88 ± 5.2	1548.2 ± 3.7
338.15 K	1252.2 ± 5.2	1537.2 ± 3.7
343.15 K	1248.54 ± 5.2	1526.2 ± 3.7
